# Laboratory results published in patent publication US5684151A, “1-arylsulphonyl, arylcarbonyl and 1-arylphosphonyl-3-phenyl-1,4,5,6-tetrahydropyridazines” (priority 1995, dated 1997).
# pIC50: −log10 of the molar value. Like-named read-outs stand apart in the source and are kept apart here.
# Assays:
# [1] = target: T1, progestin receptor from rabbit uterus (Oryctolagus cuniculus, UniProt P06186); experiment: Progestin receptor binding (3H-R5020 displacement); conditions: rabbit uterine cytosol, 4° C., 18 h, read-out: IC50: Binding affinity for the progestin receptor from rabbit uterus
# T1 construct: Cytosolic progestin receptor were obtained by mixing rabbit uterine tissue with a Tris buffer; from tissue; host or cells: rabbit uterus cytosol
# T1 sequence (P06186 whole entry): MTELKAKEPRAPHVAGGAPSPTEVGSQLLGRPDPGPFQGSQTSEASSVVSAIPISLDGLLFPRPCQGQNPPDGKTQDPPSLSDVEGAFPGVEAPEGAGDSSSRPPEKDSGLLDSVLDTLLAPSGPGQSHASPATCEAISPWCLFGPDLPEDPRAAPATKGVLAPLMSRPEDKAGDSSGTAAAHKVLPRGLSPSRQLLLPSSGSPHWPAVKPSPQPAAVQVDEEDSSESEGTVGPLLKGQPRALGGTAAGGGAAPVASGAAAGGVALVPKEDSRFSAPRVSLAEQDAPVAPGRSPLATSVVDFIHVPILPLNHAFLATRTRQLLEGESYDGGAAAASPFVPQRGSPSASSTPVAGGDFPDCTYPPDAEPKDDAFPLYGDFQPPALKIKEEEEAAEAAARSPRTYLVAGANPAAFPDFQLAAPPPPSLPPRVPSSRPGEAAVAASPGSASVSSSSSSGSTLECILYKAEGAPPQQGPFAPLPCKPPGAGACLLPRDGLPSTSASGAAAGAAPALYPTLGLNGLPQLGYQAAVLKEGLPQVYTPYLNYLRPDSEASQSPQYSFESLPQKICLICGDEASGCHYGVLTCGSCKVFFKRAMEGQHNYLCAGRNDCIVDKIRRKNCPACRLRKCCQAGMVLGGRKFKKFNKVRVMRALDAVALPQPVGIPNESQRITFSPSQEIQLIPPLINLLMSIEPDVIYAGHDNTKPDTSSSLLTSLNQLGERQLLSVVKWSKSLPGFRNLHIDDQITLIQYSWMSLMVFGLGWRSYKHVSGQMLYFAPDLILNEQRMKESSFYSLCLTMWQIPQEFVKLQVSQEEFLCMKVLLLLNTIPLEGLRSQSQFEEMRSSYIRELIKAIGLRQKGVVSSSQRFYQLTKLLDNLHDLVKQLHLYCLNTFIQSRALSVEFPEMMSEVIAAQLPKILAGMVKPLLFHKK
# How it was run: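 Displacement of the radioligand 3H-R5020 was measured in cytosol from homogenized rabbit uterus (pH 7.4 Tris/EDTA/DTT/molybdate buffer), with compounds at 5% final DMSO and about 18 h at 4 °C. Charcoal removed free ligand, scintillation counting quantified bound ligand, and IC50 was the concentration displacing half.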
# [2] = test system: Human T47D breast carcinoma cells; experiment: Ex vivo progestational test (T47D proliferation); format: cell-based; conditions: SC200, 3H-thymidine incorporation
# Procedure: The progestational activity of the compounds was accessed by their ability to stimulate proliferation of human breast carcinoma cells. Proliferation was measured as the ability to stimulate ^3 H-thymidine incorporation into these cells in vitro. Human T47D breast carcinoma cells (American Type Tissue Collection #133-HTB) were maintained in media consisting or RPMI 1640 supplemented with 10% fetal bovine serum, 10 ug/ml insulin, 10 U/ml pennicillin, 100 ug/ml streptomycin, and 2 mM L-glutamine. Monolayer cell cultures were trypsinized and washed in assay media consisting of phenol red-free RPMI 1640 supplemented with 5% charcoal-stripped, fetal bovine serum, and the other ingredients listed above. Cells were then plated in a 96-well plate. After a 48-hour incubation period at 37° C., the conditioned media was removed and replaced with fresh media containing test compounds in DMSO (0.1% DMSO final concentration). The cell cultures were incubated for 18 to 20 hours at 37° C. ^3 H-thymidine was then added to each well and the cell cultures were incubated at 37° C. for an additional 4 hours. Labelling was stopped by addition of un labelled thymidine. The cultures were washed twice, trypsinized and then harvested onto a filter mat. Incorporated ^3 -H-thymidine was measured by liquid scintillation counting. Data was expressed as a percent stimulation above control level which was set at 100%. An SC200 value was calculated as the concentration of test material needed to stimulate ^3 H-thymidine incorporation 200% of control.
# Aspects of the application of the procedure used are described in the following: C. Christensen, D. Gunter, D. Saunders and V. Malviya, Gynecol. Oncol., 28, 25 (1987); J. Puzas, R. Drivdahl, G. Howard and D. Baylink, Proc. Soc. Exp. Biol. Med., 166, 113 (1981); and I. Keydar, L. Chen, S. Karby, F. Weiss, J. Delarea, M. Raduy, S. Chaitcik and H. Brenner, Eur. J. Cancer, 15, 659 (1979)
# [3] = test system: mouse (MC3T3-E1) and human (TE-85) osteoblast-line cells; format: cell-based
# How it was run: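 Proliferation was read as ^3H-thymidine (0.4 μCi) uptake during a 4 h pulse, which started 20 h after compound addition. Before dosing, cells sat 24 h in 0.1% FBS. Values are % times control (100%).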
# [4] = test system: rabbit endometrium; experiment: In vivo progestational test (Clauberg Test); design: species or system rabbit (immature New Zealand White female); key: Active in Clauberg Assay; Active in McGinty Assay; conditions: oral or parenteral, daily for five days
# Procedure: Progestational activity was also measured in vivo by the abiity to stimulate the rabbit endometrium after either oral or parenteral administration.
# […]. Starting on the 7th day, the rabbits were given the test material daily for five days. The rabbits were sacrificed approximately 24 hours after the last administration, and the uteri were excised, trimmed and weighed. Portions of both uterine horns were fixed in 10% neutral formalin, sectioned at 6μ and stained with hematoxylin and eosin. Progestational activity was assessed as described above for the McGinty Test.
SMILES,pIC50 [1],T47D: Concentration to elicit a 200% increase in T47D Human breast cell proliferation [2],"Osteoblast Cell Proliferation, 3H-thymidine incorporation vs control (100%) ([3]; 10^-6)","Osteoblast Cell Proliferation, 3H-thymidine incorporation vs control (100%) ([3]; 10^-7)","Osteoblast Cell Proliferation, 3H-thymidine incorporation vs control (100%) ([3]; 10^-8)","Osteoblast Cell Proliferation, 3H-thymidine incorporation vs control (100%) ([3]; 10^-9)","Osteoblast Cell Proliferation, 3H-thymidine incorporation vs control (100%) ([3]; 10^-10)",In-vivo: Active in Clauberg Assay [4]
O=C(c1cc(Cl)cc(Cl)c1)N1CCCC(c2ccc(Cl)c(Cl)c2)=N1 [Compound 219],6.02,10000,144%,171%,141%,180%,178%,
O=S(=O)(/C=C/c1ccc(Cl)cc1)N1CCCC(c2ccc(Cl)c(Cl)c2)=N1 [Compound 170],8.67,4000,68%,98%,108%,108%,108%,
O=S(=O)(c1ccccc1)N1CCCC(c2cccc(Cl)c2)=N1 [Compound 95],7.99,10000,,,,,,
O=S(=O)(c1cccc2ccccc12)N1CCCC(c2ccc(Cl)cc2)=N1 [Compound 15],,10000,94%,108%,114%,123%,123%,
"CC1CCC(c2ccc(Cl)c(Cl)c2)=NN1S(=O)(=O)c1ccc(I)cc1 (centres unmarked) [Compound 282, 1-(4Iodobenzenesulfonyl)-3-(3,4-dichlorophenyl)-6-methyl 1,4,5,6-tetrahydropyridazine]",9.70,10.5,,,,,,C
"O=S(=O)(c1ccc(I)cc1)N1CCCC(c2cc(Br)c(Br)s2)=N1 [Compound 278, 3-(4,5-Dibromo-2-thienyl)-1-(4-iodobenzenesulfonyl)-1,4,5,6-tetrahydropyridazine]",9.00,85,,,,,,C
"CC1CCC(c2ccc(Cl)c(C(F)(F)F)c2)=NN1S(=O)(=O)c1ccc(I)cc1 (centres unmarked) [Compound 281, 1-(4-Iodobenzenesulfonyl)-3-(3-trifluoromethyl-4-chlorophenyl)-6-methyl-1,4,5,6-tetrahydropyridazine]",10.70,10,,,,,,C
O=S(=O)(/C=C/c1ccccc1)N1CCCC(c2ccc3ccccc3c2)=N1 [Compound 174],7.64,10000,,,,,,
"O=S(=O)(c1cccc(Cl)c1Cl)N1CCCC(c2ccc(Cl)c(Cl)c2)=N1 [Compound 105, 3-(3,4-dichlorophenyl)-1-(2,3-dichlorobenzenesulphonyl)-1,4,5,6-tetrahydropyridazine]",8.73,1070,,,,,,
"O=S(=O)(c1cc(Cl)ccc1Cl)N1CCCC(c2ccc(Cl)c(C(F)(F)F)c2)=N1 [Compound 79, 3-(4-chloro-3-trifluoromethylphenyl)-1-(2,5-dichlorobenzenesulphonyl)-1,4,5,6-tetrahydropyridazine]",9.05,10000,,,,,,
Cc1ccc(S(=O)(=O)N2CCCC(c3ccc4ccccc4c3)=N2)cc1 [Compound 120],7.88,831,,,,,,
O=S(=O)(c1cc(Cl)cc(Cl)c1)N1CCCC(c2ccc(Cl)c(Cl)c2)=N1 [Compound 104],9.07,76,,,,,,
CCCCc1ccc(C2=NN(S(=O)(=O)c3ccc(Cl)cc3)CCC2)cc1 [Compound 73],5.00,10000,,,,,,
CCCCc1ccc(C2=NN(S(=O)(=O)c3cc(Cl)ccc3Cl)CCC2)cc1 [Compound 69],5.00,10000,,,,,,
O=[N+]([O-])c1cc(S(=O)(=O)N2CCCC(c3ccc(Cl)c(Cl)c3)=N2)ccc1Cl [Compound 111],7.80,10000,,,,,,
"O=S(=O)(c1ccc(Br)cc1)N1CCCC(c2ccc(Cl)c(C(F)(F)F)c2)=N1 [Compound 115, 3-(4-chloro-3-trifluoromethylphenyl)-1-(4-bromobenzenesulphonyl)-1,4,5,6-tetrahydropyridazine]",8.68,72,,,,,,C
O=S(=O)(/C=C/c1ccc(Cl)cc1)N1CCCC(c2ccc(Cl)c(C(F)(F)F)c2)=N1 [Compound 178],8.29,164,,,,,,
CCCCc1ccc(C2=NN(S(=O)(=O)c3ccc(C)cc3)CCC2)cc1 [Compound 74],5.00,10000,,,,,,
"O=S(=O)(c1ccc(C(F)(F)F)cc1)N1CCCC(c2ccc(Cl)c(Cl)c2)=N1 [Compound 97, 3-(3,4-dichlorophenyl)-1-(4-trifluoromethylbenzenesulphonyl)-1,4,5,6-tetrahydropyridazine]",9.00,92,,,,,,C
O=S(=O)(c1cccc(Cl)c1)N1CCCC(c2ccc(Cl)c(Cl)c2)=N1 [Compound 109],8.96,1620,,,,,,
"O=S(=O)(c1cc(Cl)ccc1Cl)N1CCCC(c2ccc(Cl)c(Cl)c2)=N1 [Compound 22, 3-(3,4-dichlorophenyl)-1-(2,5-dichlorobenzenesulphonyl)-1,4,5,6-tetrahydropyridazine]",9.27,10000,86%,78%,66%,59%,40%,
"O=S(=O)(c1ccc(C(F)(F)F)cc1)N1CCCC(c2ccc(Cl)c(C(F)(F)F)c2)=N1 [Compound 125, 3-(4-chloro-3-trifluoromethylphenyl)-1-(4-trifluoromethylbenzenesulphonyl)-1,4,5,6-tetrahydropyridazine]",8.18,166,,,,,,C
"O=S(=O)(c1ccc(I)cc1)N1CCCC(c2ccc3ccccc3c2)=N1 [Compound 119, 3-(naphth-2-yl)-1-(4-iodobenzenesulphonyl)-1,4,5,6-tetrahydropyridazine]",8.60,868,,,,,,
